In a melting point compilation (Tetko et al.):

Row | SMILES | melting point
1 | O=C1c2ccccc2C(=O)c2c(O)c(O)cc(O)c21 | 259 °C
2 | Cc1ccc(O[C@H]2CC[C@@]3(C)C(=CC[C@H]4[C@@H]5CC[C@H]([C@H](C)CCCC(C)C)[C@@]5(C)CC[C@@H]43)C2)cc1 | 148 °C
3 | CC/C(=N\O)C1CC2(C)CCC1C2(C)C (centres undefined) | 92.5 °C
4 | CC(C)(C(=O)O)C(C)(C)C(=O)O | 200 °C
5 | C/C(=N/NC(N)=O)C1=CC2(C)CCC1C2(C)C (centres undefined) | 218 °C
6 | Cc1ccc2cc3c(cc2n1)CCC(C)N3 (centres undefined) | 171 °C
7 | Cc1ccc(C(=O)O)cc1O | 210 °C
8 | NS(=O)(=O)c1cc2c(s1)SCCC2=O | 222 °C
9 | COc1c(C)cc2c(c1C)CC2=O | 51 °C
10 | CC=Cc1cccc(OC)c1O | 81 °C
11 | CCCCCCCCCCCCCCN | 83.1 °C
12 | CCCCCCCl | -94 °C
13 | O=C1C(Cl)=C(NC(=O)C(Cl)Cl)C(=O)c2ccccc21 | 212 °C
14 | CCCCCN | -50 °C
15 | CCOC(=O)c1sc2sc(C(=O)OCC)c(N)c2c1N | 200 °C
16 | O=Cc1cc(-c2ccco2)on1 | 60 to 61 °C
17 | Cc1cc(Cn2nc(C)cc2C)c(O)c(Cn2nc(C)cc2C)c1 | 125 °C
18 | Nc1cc2ccccc2cc1O | 235 °C
19 | O=C(O)Cc1ccc(CBr)cc1 | 179 °C
20 | Cc1cc(Cl)ncc1[N+](=O)[O-] | 36 to 40 °C
21 | C=C(NC(C)=O)C(=O)O | 184 to 187 °C
22 | O=[N+]([O-])c1ccc(C=Cc2ccc([N+](=O)[O-])cc2S(=O)(=O)Oc2ccccc2)c(S(=O)(=O)Oc2ccccc2)c1 | 192 °C

Row | SMILES | melting point
23 | CC(C)COC(=O)c1ccccc1O | 5.9 °C
24 | NCCOS(=O)(=O)O | 277 to 280 °C
25 | CCc1cc(C(F)(F)F)c2c([nH]c3ccccc32)c1CO | 150 to 153 °C
26 | CCOC(=O)CN(CCCN(CC(=O)OCC)S(=O)(=O)c1ccc(C)cc1)S(=O)(=O)c1ccc(C)cc1 | 130 °C
27 | O=C1c2ccccc2C(=O)N1c1ccccc1 | 210 °C
28 | COc1ccc(F)c(F)c1C#N | 81 °C
29 | OCC1OC(n2cnc3c(S)ncnc32)C(O)C1O (centres undefined) | 218 to 221 °C
30 | CCC(=O)CC#N | 29 °C
31 | O=C(O)c1nn(Cc2ccc(Cl)cc2Cl)c2ccccc12 | 207 °C
32 | CNCCCN1c2ccccc2CCc2ccccc21 | 25 °C
33 | CC12CCC3c4ccc(OC(=O)c5ccccc5)cc4CCC3C1CCC2O (centres undefined) | 196 °C
34 | CCOC(=O)C(C#N)=C1Oc2ccccc2N1C | 135 to 137 °C
35 | Cc1ccc(Cl)cc1C | -6 °C
36 | COC(=O)CCCCCCC(=O)OC | -3.1 °C
37 | Cc1ccc(-c2ccccc2)cc1N | 58 to 60 °C
38 | CC(C)C(C)C=CC(C)C1CCC2C3=CC=C4CC(O)CCC4(C)C3=CCC21C (centres undefined) | 146 °C
39 | O=C(O)c1c2c(nc3ccc(F)cc13)CCCCC2 | 289 to 291 °C
40 | Cc1nccc(-c2cccc(N)c2)n1 | 108 to 109 °C
41 | Cc1cccc(CO)c1[N+](=O)[O-] | 42 to 48 °C
42 | CCCCN(C)C(=O)Nc1ccc(Cl)c(Cl)c1 | 102 °C
43 | CC12CC3CC(C1)CC(C)(C3)C2 | -30 °C
44 | C1COCCOCCOCCOCCOCCO1 | 39 °C

Row | SMILES | melting point
45 | OCc1cc(C(F)(F)F)ccc1N1CCOCC1 | 83 to 84 °C
46 | CC1(C)OC2OC(CO)C3OC(C)(C)OC3C2O1 (centres undefined) | 120 to 122 °C
47 | CC(C)COC(=O)c1ccc(C(=O)OCC(C)C)cc1 | 55 °C
48 | NC(=S)c1ccccc1Cl | 68 to 70 °C
49 | Cc1nc(COc2ccc(C(N)=NO)cc2)cs1 | 193 to 194 °C
50 | CC(C)n1cc(C#N)c(=O)[nH]c1=O | 265 to 268 °C
51 | OC(CCCN1CCCCC1)(c1ccccc1)c1ccccc1 | 104 °C
52 | COc1ccc(-n2ncc(C=O)c2C)cc1 | 80 to 82 °C
53 | Nc1c(F)ccc(F)c1Cl | 29 °C
54 | C=CC=CC#N | -60 °C
55 | CN(c1c(F)c(F)c(F)c(F)c1F)[N+](=O)[O-] | 39.5 °C
56 | CCOC(=O)c1ccc(OC)c(OC)c1Cl | 50 to 52 °C
57 | CN(C)CCCN1c2ccccc2Sc2ccccc21 | 33 °C
58 | Cn1c2c(c3ccccc31)CCCC2 | 52 °C
59 | CC12CCCC1C1CCC(CC(=O)O)C(C)(CC(=O)O)C1CC2 (centres undefined) | 229 °C
60 | NC(=O)NN=Cc1cccc2c(Br)cccc12 | 257 to 259 °C
61 | O=[N+]([O-])c1ccccc1-c1nc(-c2ccccc2)c(-c2ccccc2)[nH]1 | 235 to 238 °C
62 | ClCC(Cl)(Cl)C(Cl)(Cl)Cl | 26 °C
63 | Cc1ccc(-c2c(C#N)c(=O)n3c(sc4ccccc43)c2C(N)=O)cc1 | 199 °C
64 | CCN1C(=O)CSC1=S | 38 °C
